Source: patent US20110059482A1, “Sampling Kit” (priority 2008, published 2011)

Tests used:
[1] = Storage stability / shelf life of antibiotics, tablet and Herogel components; format: physicochemical; conditions: in liquid form, at about 8° C. (refrigerator)
Procedure: Background: Herogel is a selective growth medium comprising aztreonam and colistin to inhibit the growth of Enterobacteriaceae. Cefoxitin is added to the medium in order to inhibit the growth of MSSA (Methicillin Sensitive Staphylococcus Aureus). Cefoxitin has a short shelf life if it is added to the medium upon manufacturing of the medium and together with other antibiotics. Tests performed at Karolinska University Hospital Laboratory have shown that the activity of cefoxitin in liquid form is reduced after 14 days at about 8° C. (i.e. in a refrigerator) and that aztreonam and colistin if they are added to the growth medium are active for at least 4 months if stored at a temperature of about 8° C. (i.e. in a refrigerator). In order to prolong the shelf life of the Herogel, cefoxitin is incorporated in the tablet in Batch 1. The hypothesis is that the shelf life of the herogel will be prolonged if the tablet is added immediately after the sampling. The shelf life of the tablet is estimated to about 12 months in room temperature. The other components of the Herogel medium have a documented shelf life of at least 6 months upon storage in a refrigerator.

[2] = system: MSSA; conditions: according to the referens group for questions related to antibiotic (RAF); cited from earlier work

CO[C@@]1(NC(=O)Cc2cccs2)C(=O)N2C(C(=O)O)=C(COC(N)=O)CS[C@@H]21 [cefoxitin]
storage time after which the activity is reduced [1]: 14 days
minimal inhibitory concentration (MIC) for MSSA [2]: 4 µg/mL
